Test results published in patent US20250011722A1, “HEPATIC ORGANOIDS” (Koninklijke Nederlandse Akademie van Wetenschappen, priority 2021, published 2025).
Entries after “also recorded” stand apart in the source; their conditions may differ.

Legend:
Format in all cases: cell-based, human
MTTP^−/− organoids = assay: anti-NAFLD drug screening, Nile Red lipid staining and lipid score; details: MTTP^−/− organoids exposed to drugs for 7 days
Protocol: (§1) Compound stocks of all drugs were made in DMSO, except for recombinant hFGF19 and hFGF21 which were reconstituted in AdvDMEM+++. Drugs were dissolved in HEP medium with a maximum final concentration of 0.2% DMSO. The drug panel, their targets, and concentrations tested are described in Table 2.
(§2) APOB^−/− and MTTP^−/− organoids were exposed to the drugs or vehicle in 24-well plates for 7 days with 2 medium changes. Wild type organoids were first made steatotic by pre-incubation with 500 μM FFAs (oleic acid and palmitic acid, 1:1 ratio) for 2 days. Then, FFA-loaded organoids were treated with the different drugs, still in the presence of FFA, for 7 days with 2 medium changes. All organoids were harvested for subsequent lipid staining and lipid scoring as described below. Drug effects were evaluated by observing the lipid droplet fluorescence characteristics within all organoids within the whole well. Quantitative analyses were performed in representative organoids (n≥3) per drug concentration per steatosis organoid model. Drug effects were validated in at least two independent experiments. For drug screening in PLIN2::tdTomato reporter organoids, the organoids were plated in 96-well black plates and treated with the indicated drugs. Pictures were taken over a 7-day time course using the EVOS FL Auto Imaging System. Images and fluorescence quantifications are representative of two independent experiments.
(§3) Organoids were carefully harvested in cold AdvDMEM+++ and washed once with cold AdvDMEM+++ using low-speed centrifugations. Organoids were fixed in 4% formaldehyde at RT for 30 min-1 hour. For lipid stainings, organoids were washed twice with PBS, and incubated with Nile Red (1 μg/μl) and DAPI (1 μg/μl) for 20 min at RT. Organoids were washed twice with PBS, and transferred in 100 μl PBS to a well of a 96-well black SensoPlate for imaging analysis. […] Organoids were washed once with 0.5% BSA-PBS and subsequently incubated with primary antibodies in 2.5% BSA-PBS O/N at 4° C. After 3 washes with 0.5% BSA-PBS, organoids were incubated with secondary antibodies in 2.5% BSA-PBS for 2-4 hours at RT. Organoids were washed once with 0.5% BSA-PBS, after which they were incubated with DAPI (1 μg/μl) in 0.5% BSA-PBS for 20 min at RT, and washed once more with 0.5% BSA-PBS. Organoids were then transferred in 100 μl 0.5% BSA-PBS to a well of a 96-well black SensoPlate.
(§4) Stained organoids were imaged on a Leica Sp8 confocal. Fluorescent images were processed using Photoshop CS4 or ImageJ software. The lipid score was calculated using Fiji software. The lipid score is defined by integrating the lipid droplet fluorescence and lipid droplet area coverage as follows: a fluorescence threshold derived from the lipid droplet signal is determined on Z-projected images to convert them into binary images. The region of interest (ROI) (organoid surface area) is defined based on fluorescence signal from the counterstained DAPI^+ nuclei. Then, particle measurement analysis is performed to define the fluorescence area covered within the defined ROI. The lipid score represents a normalized score of the resulting data on a linear 0 to 1 scale, where the mean calculated values from wild type organoids are arbitrarily set to 0, while the mean calculated values from either vehicle-treated APOB^−/− or MTTP^−/− organoids or vehicle-treated FFA-loaded organoids are set to 1, allowing scoring of drug effectiveness within these boundaries. Quantification of the amount of lipid droplets was performed manually by counting droplets within a given ROI (organoid surface area). The lipid droplet area coverage is determined identical to the lipid score without the final normalization steps.

APOB^−/− organoids [1] = assay: as above; details: APOB^−/− organoids exposed to drugs for 7 days
Protocol: as §1, §2, §3, §4

APOB^−/− organoids [2] = assay: bulk RNA-sequencing of drug-treated organoids
Protocol: Organoids from 1 well of a 12-well plate were harvested and washed in cold AdvDMEM+++. Organoid pellets were lysed in 1 ml TRIzol Reagent and subsequently snap-frozen in liquid nitrogen. RNA was extracted according to the manufacturer's protocol. RNA integrity was measured using the Agilent RNA 6000 Nano kit with the Agilent 2100 Bioanalyzer and RNA concentrations were determined using the Qubit RNA HS Assay Kit. RNA integrity number (RIN) values of RNA samples were typically 9.5-10 and never below 9.0. RNA libraries were prepared TruSeq Stranded mRNA polyA kit and single-end (1×75 bp) sequenced on an Illumina Nextseq 2000 or Nextseq 500. Reads were mapped to the human GRCh38 genome assembly. Differential gene expression analysis was performed using the DESeq2 package (Love et al., 2014) in RStudio. Considered log 2 fold changes and significance (p-values) are indicated throughout the paper. Data visualization was obtained using the ggplot2, ComplexHeatmap, and EnhancedVolcano packages in RStudio or manually plotted using GraphPad Prism 8.

[3] = test system: FFA-loaded wild type organoids; assay: anti-NAFLD drug screening, Nile Red lipid staining and lipid score; details: wild type organoids pre-incubated with 500 μM FFAs 2 days, then drugs 7 days in presence of FFA
Protocol: Wild type human hepatocyte organoids were made steatotic by providing a concentrated mixture of exogenous FFAs (oleic acid (18:1) and palmitic acid (16:0), ratio 1:1) in the culture medium. The FFAs were dissolved in ethanol and thereafter conjugated to bovine serum albumin. Prior to fat loading, organoids were plated into small BME droplets (15 μl/drop) to facilitate FFA penetration. Total concentrations of FFA were 640 μM for transcriptomic analyses to mimic the level of steatosis observed in APOB^−/− or MTTP^−/− organoids.
as §1
as §2, with “experiments. […]” for “experiments. For drug screening in PLIN2::tdTomato reporter organoids, the organoids were plated in 96-well black plates and treated with the indicated drugs. Pictures were taken over a 7-day time course using the EVOS FL Auto Imaging System.”, “experiments. […]” for “experiments.”
as §4, with “Fluorescent images were processed using Photoshop CS4 or ImageJ software.” left out, “Quantification of the amount of lipid droplets was performed manually by counting droplets within a given ROI (organoid surface area). The lipid droplet area coverage is determined identical to the lipid score without the final normalization steps.” left out

[4] = test system: PLIN2::tdTomato; MTTP^−/− reporter organoids; assay: drug screening in PLIN2 reporter organoids, fluorescence read-out; details: PLIN2-tagged reporter organoids, ACCi or vehicle for 5 days
From the text: PLIN2 reporter lines in the background of APOB^−/− or MTTP^−/− organoids were generated using CRISPR-HOT as described previously (Artegiani et al., 2020; Hendriks et al., 2021). Briefly, the transfection mixture consisted of a sgRNA targeting the C-terminus of PLIN2, a plasmid providing both Cas9 and a non-human sgRNA targeting the donor plasmid (Addgene #66940), and a donor plasmid encoding either tdTomato (Addgene #138567) or mNeon (a gift from V. Hornung). Upon transfection, the sgRNA targeting the donor plasmid linearizes the donor plasmid to facilitate NHEJ-mediated in-frame gene knock-in of the fluorescent tag into the PLIN2 C-terminus. Upon outgrowth of transfected organoids, fluorescent organoids became apparent. A bulk PLIN2-tagged fluorescence-pure culture was established by sorting single fluorescence-positive cells by FACS. Genotyping was performed to confirm precise gene knock-in.
APOB^−/− and MTTP^−/− organoids were exposed to the drugs or vehicle in 24-well plates for 7 days with 2 medium changes. […] Drug effects were evaluated by observing the lipid droplet fluorescence characteristics within all organoids within the whole well. Quantitative analyses were performed in representative organoids (n≥3) per drug concentration per steatosis organoid model. […] Images and fluorescence quantifications are representative of two independent experiments.

O=C(Nc1ccc2[nH]nc(-c3ccncc3)c2c1)[C@@H]1CCN(CC(=O)N2CCN(c3ccc(-c4ncccn4)cc3)CC2)C1 [ERKi, SCH772984]
steatosis phenotype (lipid staining, lipid score) (MTTP^−/− organoids): did not alter the steatosis phenotype
steatosis phenotype (lipid staining, lipid score) (APOB^−/− organoids [1]): did not alter the steatosis phenotype

COc1ccccc1[C@H](Cn1c(=O)n(C(C)(C)C(=O)O)c(=O)c2c(C)c(-c3ncco3)sc21)OC1CCOCC1 [ACCi, Firsocostat]
expression of genes important for cell proliferation and DNA synthesis (APOB^−/− organoids [2]): downregulation
expression of key genes involved in glycolysis (ALDOB, HK2, ENO2, PFKFB3/4) (APOB^−/− organoids [2]): downregulated
expression of lipogenic genes (ACACA, FASN, SREBF1, etc.) (APOB^−/− organoids [2]): increased expression
steatosis phenotype (lipid staining, lipid score) (MTTP^−/− organoids): Effective
steatosis phenotype (lipid staining, lipid score) (APOB^−/− organoids [1]): Effective
steatosis phenotype (lipid staining, lipid score) [3]: Effective
endogenous fluorescent signal of PLIN2 reporter [4]: reduced the endogenous fluorescent signal

CS(=O)(=O)O.O=C([C@@H]1CCCN(c2ccc3[nH]c(C4(n5cc(Cl)cn5)CC4)nc3n2)C1)N1CCCC1 [DGAT2i, PF06424439]
transcriptomic changes versus vehicle-treated organoids (APOB^−/− organoids [2]): transcriptomically identical to vehicle-treated organoids; also recorded: very few transcriptomic changes
steatosis phenotype (lipid staining, lipid score) (MTTP^−/− organoids): Effective
steatosis phenotype (lipid staining, lipid score) (APOB^−/− organoids [1]): Effective
steatosis phenotype (lipid staining, lipid score) [3]: Effective

hFGF19: recombinant human FGF19, activates β-Klotho/FGFRs
expression of FXR target genes CYP7A1 and CYP27A1 (APOB^−/− organoids [2]): downregulation
expression of NR0B2 (SHP) (APOB^−/− organoids [2]): induction
expression of de novo lipogenesis-related genes, including DGAT2, ACSS2, and GPAM (APOB^−/− organoids [2]): repress
expression of key hepatocyte markers (ALB, TTR) (APOB^−/− organoids [2]): downregulation
genes of TGFβ regulation of extracellular matrix (APOB^−/− organoids [2]): gene induction patterns suggestive of TGFβ-related extracellular matrix remodeling
steatosis phenotype (lipid staining, lipid score) (MTTP^−/− organoids): marked steatosis-reducing effects
steatosis phenotype (lipid staining, lipid score) (APOB^−/− organoids [1]): marked steatosis-reducing effects
steatosis phenotype (lipid staining, lipid score) [3]: marked steatosis-reducing effects

Oc1ccc(-c2nc(-c3ccncc3)c(-c3ccc(F)cc3)[nH]2)cc1 [p38i, SB202190]
steatosis phenotype (lipid staining, lipid score) (MTTP^−/− organoids): reduced the steatosis phenotype
steatosis phenotype (lipid staining, lipid score) (APOB^−/− organoids [1]): reduced the steatosis phenotype

Cc1nnc(-c2cc(C(=O)N3CCC(c4ccc(C#N)cc4)CC3)c(C)cc2C2CCC2)[nH]1 [FASi, TVB2640]
expression of genes important for cell proliferation and DNA synthesis (APOB^−/− organoids [2]): downregulation
expression of key genes involved in glycolysis (ALDOB, HK2, ENO2, PFKFB3/4) (APOB^−/− organoids [2]): downregulated
expression of lipogenic genes (ACACA, FASN, SREBF1, etc.) (APOB^−/− organoids [2]): increased expression
steatosis phenotype (lipid staining, lipid score) (MTTP^−/− organoids): Effective
steatosis phenotype (lipid staining, lipid score) (APOB^−/− organoids [1]): Effective
steatosis phenotype (lipid staining, lipid score) [3]: Effective

O=C(O)c1ccnc(N2CC(O)(c3ccc(OCc4c(-c5c(Cl)cccc5Cl)noc4C4CC4)cc3Cl)C2)c1 [FXRa, Cilofexor]
FGF19 expression (APOB^−/− organoids [2]): strongly upregulated
expression of FXR target genes CYP7A1 and CYP27A1 (APOB^−/− organoids [2]): downregulation
expression of NR0B2 (SHP) (APOB^−/− organoids [2]): induction
expression of de novo lipogenesis-related genes, including DGAT2, ACSS2, and GPAM (APOB^−/− organoids [2]): repress
expression of key hepatocyte markers (ALB, TTR) (APOB^−/− organoids [2]): downregulation
expression of transporters such as BSEP (ABCB11) (APOB^−/− organoids [2]): induction
genes of TGFβ regulation of extracellular matrix (APOB^−/− organoids [2]): gene induction patterns suggestive of TGFβ-related extracellular matrix remodeling
